Data set [1] concerns B6 mice. The data set can be described thus: Cardiovascular function test (tail cuff plethysmography). The settings on record: acute, equi-antinociceptive doses.
A further data set concerns mice. The data set is described as follows: Conditioned place preference (CPP) test, reinstatement of morphine CPP. As to conditions: challenge on reinstatement day (Day 21).
The test system of data set [2] is B6 mice. The data set is described as follows: Respiratory function test. The settings on record: acute, equi-antinociceptive doses.
Data set [3] deals with wild-type C57BL/6 (B6) mice. The data set is described as follows: Tail flick test (acute thermal pain). As to conditions: equi-antinociceptive doses, B6 mice. The format is in vivo, mouse. In general terms: Thermal pain tests record how soon the animal reacts.

Regarding `CN1CC[C@]23c4c5ccc(O)c4O[C@H]2[C@@H](O)C=C[C@H]3[C@H]1C5.Cl` [morphine, Morphine hydrochloride, reference compound], in the data set on B6 mice [1], the blood pressure entry was “non-significant effect on blood pressure”, the “heart rate (pulse)” value is “reduced from 10 to 30 min” and the rate-pressure product entry was “reduced from 10 to 20 min”. Moreover, in the data set with mice, the “reinstatement of morphine CPP” value is given as “induced reinstatement of morphine CPP”. Moreover, the “respiratory amplitude (tidal volume)” value in the data set with B6 mice [2] is reported as “significantly reduced respiratory amplitude (tidal volume) at 10 to 20 min”. In addition, the respiratory frequency entry with B6 mice [2] (10-60 min) is “marked respiratory depression at 10 min and keep falling of respiratory frequency going through 60 min”. In addition, the “time at which analgesic effects were exerted after acute injection” value in data set [3] turned out to be 20 min.

Values taken from patent US10597378B2 (priority 2017, dated 2020).
